Measurements from article PMC12040169 (PLOS Biology, 2025).

Assay: in vitro
Settings: human, hela cells, % viability

Compound	viability at 28.5 h, 10 µM [%]
Cc1cc2ccccc2n2c(=O)n(CC(=O)N3CCCC3)nc12 [CBK283880]	101
Cc1cc2ccccc2n2c(=O)n(CC(=O)NC3CCCC3)nc12 [CBK283884]	79.7
CC(NC(=O)c1ncoc1-c1ccccc1)c1ccccn1 (stereo not drawn) [CBK283889]	92.6
CCn1c(=O)n(CC(=O)N2CCCC3CCCCC32)c2cccnc21 (stereo not drawn) [CBK283893]	87.3
CCn1c(=O)n(CC(=O)NCc2ccc(F)cc2)c2cccnc21 [CBK283901]	87.8
CN(C)C(=O)Cn1c(=O)n(Cc2cccs2)c2ncccc21 [CBK283902]	81.7
CCn1c(=O)n(CC(=O)N2CCCC2)c2cccnc21 [CBK283904]	107
Cn1c(=O)n(CC(=O)NCc2ccc(F)cc2)c2cccnc21 [CBK283908]	86.6
Cn1c(=O)n(CC(=O)NCCc2ccccc2)c2cccnc21 [CBK283910]	82.8
Cn1c(=O)n(CC(=O)NCc2cccc(F)c2)c2cccnc21 [CBK283911]	105
Cc1ccnn1CCC(=O)N1CCn2cc(C(F)(F)F)nc2C1 [CBK283912]	110
Cn1c(=O)n(CC(=O)Nc2ccc(F)cc2)c2cccnc21 [CBK283919]	101
C=CCNC(=O)C1CCN(c2nc3ccccc3n2CC)CC1 [CBK283920]	113
CCn1c(N2CCC(C(=O)NC3CC3)CC2)nc2ccccc21 [CBK283922]	92.7
O=C(NC1CCCc2c1cnn2-c1ccc(F)cc1)C1CC1 (stereo not drawn) [CBK283928]	111
O=C(CN1CCCC1)NC1CCCc2c1cnn2-c1ccc(F)cc1 (stereo not drawn) [CBK283930]	91.5
CC(C)n1c(=O)n(CCN2CCCCC2)c2cccnc21 [CBK283932]	95.4
c1ccc(CNc2c(-c3ccco3)nc3cnccn23)cc1 [CBK283933]	90.6
O=C(Cn1ccnc1)N1CCCCC1c1nc2ccccc2[nH]1 (stereo not drawn) [CBK283936]	107
COc1ccc(-c2ocnc2C(=O)NCCc2ccccc2F)cc1 [CBK283941]	90
O=C(CN1C(=O)N2CCN=C2c2ccccc21)N1CCCC1 [CBK283945]	91.9
CC1CCN(C(=O)CN2C(=O)N3CCN=C3c3ccccc32)CC1 [CBK283946]	93.6
Cc1nc2c(c(=O)[nH]1)CN(Cc1ccc(Cl)c(Cl)c1)CC2 [CBK283949]	88.7
Cc1nc2c(c(=O)[nH]1)CN(Cc1sccc1C)CC2 [CBK283950]	91.1

Compound	viability at 28.5 h, 10 µM [%]
Cc1nc2c(c(=O)[nH]1)CN(Cc1cc(F)ccc1F)CC2 [CBK283953]	86.9
C=CCNC(=O)C1CCN(c2nc3ccccc3n2C)CC1 [CBK283955]	92
CC1CC(C)CN(C(=O)CN2C(=O)N3CCN=C3c3ccccc32)C1 (stereo not drawn) [CBK283960]	90
CN(C)C(=O)CN1C(=O)N2CCN=C2c2ccccc21 [CBK283961]	94.7
O=C1NC2(CCN(C(=O)Cc3ccsc3)CC2)Nc2ccccc21 [CBK283963]	94.7
COCCn1c(=O)n(Cc2ccccc2F)c2cccnc21 [CBK283965]	88.6
Clc1ccccc1CN1CCC(n2cnc3cccnc32)CC1 [CBK283967]	105
c1csc(CN2CCC(n3cnc4cccnc43)CC2)c1 [CBK283968]	101
Cc1nc2c(c(=O)[nH]1)CCN(Cc1ccc(-c3ccccc3)cc1)C2 [CBK283970]	94.4
Cc1csc(NC(=O)c2ncoc2-c2cccs2)n1 [CBK283972]	88.2
O=C(NCc1cccnc1)c1ncoc1-c1cccs1 [CBK283974]	87.5
O=C(Nc1nccs1)c1ncoc1-c1cccs1 [CBK283975]	102
O=C(NCc1ccc(F)cc1)c1ncoc1-c1cccs1 [CBK283976]	91.7
Cc1cnc(NC(=O)c2ncoc2-c2cccs2)s1 [CBK283977]	102
Cc1c(C(=O)NC2(c3ccc(F)cc3)CCCC2)cnn1C [CBK283978]	90.9
CCn1c(N2CCC(C(=O)NC(C)C)CC2)nc2ccccc21 [CBK283982]	83.8
CCn1c(N2CCC(C(=O)NCC3CC3)CC2)nc2ccccc21 [CBK283983]	104
Cn1c(CNC(=O)c2ncoc2-c2cccs2)nc2ccccc21 [CBK283985]	78.6
CC(C)NC(=O)C1CCN(c2nc3ccccc3n2C)CC1 [CBK283986]	87.5
Cc1nc2c(c(=O)[nH]1)CCN(Cc1cn(C(C)C)c3ccccc13)C2 [CBK283991]	105
C=CCn1cc(CN2CCc3c(nc(C)[nH]c3=O)C2)c2ccccc21 [CBK283992]	97.5
CCc1cccc2c(CN3CCc4c(nc(C)[nH]c4=O)C3)c[nH]c12 [CBK283993]	94.6
Cc1nc2c(c(=O)[nH]1)CCN(Cc1[nH]c3ccccc3c1C)C2 [CBK283995]	93
Cc1nc2c(c(=O)[nH]1)CCN(Cc1[nH]c3ccc(F)cc3c1C)C2 [CBK283996]	89.4

Compound	viability at 28.5 h, 10 µM [%]
O=C1NC2(CCN(C(=O)c3ccccc3F)CC2)Oc2ccccc21 [CBK283997]	81.9
O=C1NC2(CCN(C(=O)c3cccs3)CC2)Oc2ccccc21 [CBK283998]	87.3
O=C(C1CC1)N1CCC2(CC1)Nc1ccccc1-n1cccc12 [CBK284011]	91.5
Cc1nc2c(c(=O)[nH]1)CN(Cc1cn(C(C)C)c3ccccc13)CC2 [CBK284014]	93.5
CCN(CC)C(=O)Cn1c(=O)n(Cc2ccco2)c2ncccc21 [CBK284016]	109
Cc1nn(CC(=O)OC(C)C)c(=O)c2cc3sccc3n12 [CBK284022]	93.7
Cc1nn(CC(=O)NC2CCCC2)c(=O)c2cc3sccc3n12 [CBK284023]	104
Cc1nn(CC(=O)NCC2CC2)c(=O)c2cc3sccc3n12 [CBK284025]	94.5
Cc1nn(CC(=O)NC2CC2)c(=O)c2cc3ccsc3n12 [CBK284026]	92.3
CCc1nn(CC(=O)NC2CC2)c(=O)c2cc3sccc3n12 [CBK284029]	88.7
CCc1nn(CC(=O)N(C)C)c(=O)c2cc3sccc3n12 [CBK284031]	91.3
O=C(c1ccccn1)N1C2CCC1CC(O)(c1ccco1)C2 (stereo not drawn) [CBK284034]	87
O=C(C1CCCO1)N1C2CCC1CC(O)(c1ccco1)C2 (stereo not drawn) [CBK284035]	83
Cc1cc2nccc(C3CCCN(C(=O)OC(C)(C)C)C3)n2n1 (stereo not drawn) [CBK284037]	90.8
CC(C)C(=O)N1CCCC(n2nc(-c3cccs3)ccc2=O)C1 (stereo not drawn) [CBK284038]	92.3
Cc1nn(CC(=O)N2CCCCC2)c(=O)c2cc3sccc3n12 [CBK284040]	93.6
Cc1nn(CC(=O)N2CCCC(C)C2)c(=O)c2cc3ccsc3n12 (stereo not drawn) [CBK284041]	81.7
Cc1nn(CC(=O)OC2CCCCC2)c(=O)c2cc3sccc3n12 [CBK284045]	80.8
Cc1nn(CC(=O)N2CCCC(C)C2)c(=O)c2cc3sccc3n12 (stereo not drawn) [CBK284046]	87.7
Cn1ccnc1C1(O)CC2CCC(C1)N2C(=O)NC1CCCCC1 (stereo not drawn) [CBK284049]	88.5
Cn1ccnc1C1(O)CC2CCC(C1)N2C(=O)NCc1ccccc1 (stereo not drawn) [CBK284050]	81.3
Cn1ccnc1C1(O)CC2CCC(C1)N2C(=O)Nc1ccc(F)cc1 (stereo not drawn) [CBK284051]	85.7
COc1cccc(CC(=O)N2C3CCC2CC(O)(c2ccco2)C3)c1 (stereo not drawn) [CBK284053]	80.5
CCc1nn(CC(=O)NCC2CC2)c(=O)c2cc3sccc3n12 [CBK284055]	90.5

Compound	viability at 28.5 h, 10 µM [%]
Cc1nn(CC(=O)N2CCCC2)c(=O)c2cc3ccsc3n12 [CBK284057]	88.7
O=C(CN1C2CCC1CC(O)(c1ccco1)C2)Nc1ccc(F)cc1 (stereo not drawn) [CBK284062]	87.6
Cc1cc2c(cc3c(=O)n(CC(=O)N4CCCCC4)nc(C)n32)s1 [CBK284063]	95.3
CCN(CC)C(=O)Cn1nc(C)n2c(cc3sc(C)cc32)c1=O [CBK284064]	96.1
CCOC(=O)C(C)n1nc(C)n2c(cc3sc(C)cc32)c1=O (stereo not drawn) [CBK284066]	76.8
Cc1cc2c(cc3c(=O)n(CC(=O)NC4CC4)nc(C)n32)s1 [CBK284067]	74.3
Cc1cc2c(cc3c(=O)n(CC(=O)OC(C)C)nc(C)n32)s1 [CBK284071]	98.6
CCOC(=O)Cn1nc(CC)n2c(cc3sccc32)c1=O [CBK284073]	80.3
CCc1nn(Cc2ccccn2)c(=O)c2cc3sccc3n12 [CBK284074]	46.8
CCc1nn(CCN2CCCC2)c(=O)c2cc3sccc3n12 [CBK284075]	83.5
CCc1nn(CC(=O)OC(C)C)c(=O)c2cc3sccc3n12 [CBK284076]	75.3
Cc1nn(CC(=O)N2CCCCC2)c(=O)c2cc3ccsc3n12 [CBK284078]	91
Cc1nn(CC(=O)NC(C)(C)C)c(=O)c2cc3ccsc3n12 [CBK284082]	83.2
Cc1nn(CC(=O)N2CCC(C)CC2)c(=O)c2cc3sccc3n12 [CBK284083]	80
Cc1nn(CC(=O)N2CCCCCC2)c(=O)c2cc3sccc3n12 [CBK284084]	80.4
Cn1ccnc1C1(O)CC2CCC(C1)N2C(=O)c1ccc(F)cc1 (stereo not drawn) [CBK284086]	98.4
Cn1ccnc1C1(O)CC2CCC(C1)N2C(=O)c1ccc(Cl)cc1 (stereo not drawn) [CBK284087]	94.2
Cn1ccnc1C1(O)CC2CCC(C1)N2C(=O)c1cccs1 (stereo not drawn) [CBK284088]	94.2
CC1CCCN(C(=O)CN2C3CCC2CC(O)(c2ccco2)C3)C1 (stereo not drawn) [CBK284095]	98.8
CCOC(=O)Cn1nc(C)n2c(cc3sc(C)cc32)c1=O [CBK284096]	82.3
CCc1nn(CC(=O)N(C)C)c(=O)c2cc3sc(C)cc3n12 [CBK284102]	110
